{"source": "patent US9408852B2", "about": "“Method of lowering serum uric acid levels with (S)-tofisopam” (PHARMOS CORPORATION, priority 2011, dated 2016)", "key": {"[1]": {"tested_on": "serum uric acid", "test": "Serum uric acid after single oral doses in male healthy volunteers (Example 2)", "assay_type": "in vivo, human", "conditions": "for Mean CFB (change from baseline) in uric acid levels: male healthy volunteers, n = 6", "procedure": "Male healthy volunteers received 50-400 mg enantiomerically-pure (S)-tofisopam by oral administration. Mean serum uric acid values fell by 23% to 30% within 4 hours after receiving single doses (Table 1)."}, "[2]": {"tested_on": "fractional excretion of uric acid", "test": "Post hoc analysis of clinical trial specimens: fractional excretion of uric acid and renal function (Example 3)", "assay_type": "in vivo, human", "conditions": "50 mg TID", "description": "In another study in healthy men and postmenopausal women, the trial period included a single-dose phase (Day 1) and a multiple-dose phase (Days 2-6). […] With multiple-dose oral administration (twice a day (BID) or three times a day (TID) on days 2-6), this decrease was more pronounced."}, "[3]": {"target": "xanthine oxidase (Homo sapiens, UniProt P47989)", "sequence (P47989 whole entry, species assumed)": "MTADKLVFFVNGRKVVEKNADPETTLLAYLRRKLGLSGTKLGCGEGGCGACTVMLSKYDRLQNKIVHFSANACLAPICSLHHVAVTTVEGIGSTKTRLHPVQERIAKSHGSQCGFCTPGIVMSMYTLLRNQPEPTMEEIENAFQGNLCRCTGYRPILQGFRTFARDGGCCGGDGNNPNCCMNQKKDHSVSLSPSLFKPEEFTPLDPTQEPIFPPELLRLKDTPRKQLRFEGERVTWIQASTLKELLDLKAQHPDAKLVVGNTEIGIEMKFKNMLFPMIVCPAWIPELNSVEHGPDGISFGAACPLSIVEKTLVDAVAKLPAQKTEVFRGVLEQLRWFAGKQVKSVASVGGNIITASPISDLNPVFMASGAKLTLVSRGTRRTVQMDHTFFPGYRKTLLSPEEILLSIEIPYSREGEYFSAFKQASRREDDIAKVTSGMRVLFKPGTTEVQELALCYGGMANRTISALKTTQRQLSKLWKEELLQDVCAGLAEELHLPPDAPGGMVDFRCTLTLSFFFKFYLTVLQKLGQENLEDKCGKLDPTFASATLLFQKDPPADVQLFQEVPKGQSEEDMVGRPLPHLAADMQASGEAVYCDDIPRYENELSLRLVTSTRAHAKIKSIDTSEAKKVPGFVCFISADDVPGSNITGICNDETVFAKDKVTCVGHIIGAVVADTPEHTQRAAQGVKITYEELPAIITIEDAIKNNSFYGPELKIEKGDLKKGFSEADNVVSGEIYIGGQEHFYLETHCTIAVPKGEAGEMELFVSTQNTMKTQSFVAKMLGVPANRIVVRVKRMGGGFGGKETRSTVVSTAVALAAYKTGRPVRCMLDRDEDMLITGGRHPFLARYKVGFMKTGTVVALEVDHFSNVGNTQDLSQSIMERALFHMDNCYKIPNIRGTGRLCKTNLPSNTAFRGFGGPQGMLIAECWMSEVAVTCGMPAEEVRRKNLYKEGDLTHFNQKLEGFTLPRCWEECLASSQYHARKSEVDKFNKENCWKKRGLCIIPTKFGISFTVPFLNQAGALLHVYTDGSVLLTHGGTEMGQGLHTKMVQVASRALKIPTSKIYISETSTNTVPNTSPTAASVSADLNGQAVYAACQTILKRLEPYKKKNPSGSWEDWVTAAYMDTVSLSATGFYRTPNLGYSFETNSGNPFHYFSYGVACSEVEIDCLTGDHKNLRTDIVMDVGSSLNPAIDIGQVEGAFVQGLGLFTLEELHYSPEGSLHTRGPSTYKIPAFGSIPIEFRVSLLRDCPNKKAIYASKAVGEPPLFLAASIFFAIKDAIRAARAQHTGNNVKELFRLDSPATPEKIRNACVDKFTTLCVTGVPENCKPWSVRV", "test": "Xanthine oxidase inhibition", "assay_type": "biochemical", "conditions": "unlike allopurinol"}, "[4]": {"tested_on": "serum uric acid", "test": "Serum uric acid in male and female patients with hyperuricemia and gout, 7 days (Example 7)", "assay_type": "in vivo, human", "procedure": "(§1) The study lasted 7 days, and patients were treated with placebo or 50 mg of enantiomerically-pure (S)-tofisopam once a day (qd) on Day 1 and Day 7 of the study, and with placebo or 50 mg of enantiomerically-pure (S)-tofisopam three times a day (tid) for Days 2 to 6 of the study. […] In Table 6, days indicated with a minus sign (e.g. D-1) indicate the time point corresponding to that number of days before treatment was initiated. For example, D-14 is the time point fourteen days before treatment was initiated."}, "[5]": {"tested_on": "serum creatinine", "test": "Serum creatinine in male and female patients with hyperuricemia and gout, 7 days (Example 8)", "assay_type": "in vivo, human", "conditions": "50 mg qd Day 1 and Day 7, tid Days 2 to 6; Day 1 6 h (Day 1 0 h = 0.0); hyperuricemia and gout", "procedure": "as §1, with “7,” for “6,”"}, "[6]": {"conditions": "50 mg qd Day 1 and Day 7, tid Days 2 to 6, Day 1 6 h (Day 1 0 h = 0.0), hyperuricemia and gout"}, "[7]": {"conditions": "50 mg qd Day 1 and Day 7, tid Days 2 to 6, Day 1 to Day 2: Day 1 0 h + Day 2, hyperuricemia and gout"}, "[8]": {"conditions": "50 mg qd Day 1 and Day 7, tid Days 2 to 6, Day 2 (Day 1 0 h = 0.0), hyperuricemia and gout"}, "[9]": {"conditions": "50 mg qd Day 1 and Day 7, tid Days 2 to 6, Day 3 (Day 1 0 h = 0.0), hyperuricemia and gout"}, "[10]": {"conditions": "50 mg qd Day 1 and Day 7, tid Days 2 to 6, Day 4 (Day 1 0 h = 0.0), hyperuricemia and gout"}, "[11]": {"conditions": "50 mg qd Day 1 and Day 7, tid Days 2 to 6, Day 5 (Day 1 0 h = 0.0), hyperuricemia and gout"}, "[12]": {"conditions": "50 mg qd Day 1 and Day 7, tid Days 2 to 6, Day 6 (Day 1 0 h = 0.0), hyperuricemia and gout"}, "[13]": {"conditions": "50 mg qd Day 1 and Day 7, tid Days 2 to 6, Day 6 to Day 7: Day 6 + Day 7, hyperuricemia and gout"}, "[14]": {"conditions": "50 mg qd Day 1 and Day 7, tid Days 2 to 6, Day 7 (Day 1 0 h = 0.0), hyperuricemia and gout"}, "[15]": {"conditions": "50 mg qd Day 1 and Day 7, tid Days 2 to 6, Day 8 (after treatment stopped), hyperuricemia and gout"}, "[16]": {"conditions": "50 mg qd Day 1 and Day 7, tid Days 2 to 6, Day 15 (after treatment stopped), hyperuricemia and gout"}}, "note": "“And” between values parts separate entries of the source, which are not always exact repeats. Equal entries are not always repeated.", "data": [{"smiles": "CC[C@@H]1C(C)=NN=C(c2ccc(OC)c(OC)c2)c2cc(OC)c(OC)cc21", "note": "[(S)-tofisopam]", "values": [{"measurement": "Mean CFB (change from baseline) in uric acid levels", "setting": "[1]; single oral dose 50 mg, 4 hours after dose", "result": "−23", "unit": "%"}, {"measurement": "Mean CFB (change from baseline) in uric acid levels", "setting": "[1]; single oral dose 50 mg, 24 hours after dose", "result": "−25", "unit": "%"}, {"measurement": "Mean CFB (change from baseline) in uric acid levels", "setting": "[1]; single oral dose 50 mg, 48 hours after dose", "result": "−24", "unit": "%"}, {"measurement": "Mean CFB (change from baseline) in uric acid levels", "setting": "[1]; single oral dose 100 mg, 4 hours after dose", "result": "−25", "unit": "%"}, {"measurement": "Mean CFB (change from baseline) in uric acid levels", "setting": "[1]; single oral dose 100 mg, 24 hours after dose", "result": "−28", "unit": "%"}, {"measurement": "Mean CFB (change from baseline) in uric acid levels", "setting": "[1]; single oral dose 100 mg, 48 hours after dose", "result": "−29", "unit": "%"}, {"measurement": "Mean CFB (change from baseline) in uric acid levels", "setting": "[1]; single oral dose 200 mg, 4 hours after dose", "result": "−29", "unit": "%"}, {"measurement": "Mean CFB (change from baseline) in uric acid levels", "setting": "[1]; single oral dose 200 mg, 24 hours after dose", "result": "−36", "unit": "%"}, {"measurement": "Mean CFB (change from baseline) in uric acid levels", "setting": "[1]; single oral dose 200 mg, 48 hours after dose", "result": "−37", "unit": "%"}, {"measurement": "Mean CFB (change from baseline) in uric acid levels", "setting": "[1]; single oral dose 300 mg, 4 hours after dose", "result": "−30", "unit": "%"}, {"measurement": "Mean CFB (change from baseline) in uric acid levels", "setting": "[1]; single oral dose 300 mg, 24 hours after dose", "result": "−48", "unit": "%"}, {"measurement": "Mean CFB (change from baseline) in uric acid levels", "setting": "[1]; single oral dose 300 mg, 48 hours after dose", "result": "−49", "unit": "%"}, {"measurement": "Mean CFB (change from baseline) in uric acid levels", "setting": "[1]; single oral dose 400 mg, 4 hours after dose", "result": "−27", "unit": "%"}, {"measurement": "Mean CFB (change from baseline) in uric acid levels", "setting": "[1]; single oral dose 400 mg, 24 hours after dose", "result": "−48", "unit": "%"}, {"measurement": "Mean CFB (change from baseline) in uric acid levels", "setting": "[1]; single oral dose 400 mg, 48 hours after dose", "result": "−45", "unit": "%"}, {"measurement": "Time course of uric acid levels after single dose", "setting": "[1]; single oral doses 50-400 mg, 4, 24 and 48 hours", "result": "decreased further up to the 24-hour timepoint, with no further decrease at 48 hours"}, {"measurement": "Dose relation of decreases in uric acid levels", "setting": "[1]; single oral doses 50-400 mg, slightly lower decreases at 400 mg", "result": "dose-related up to the 300 mg dose"}, {"measurement": "Effect on other common parameters of renal function", "setting": "[2]", "result": "no measurable effect"}, {"measurement": "Fractional excretion of uric acid", "setting": "[2]", "result": "increases"}, {"measurement": "Renal injury", "setting": "[2]", "result": "no sign of renal injury"}, {"measurement": "Inhibition of xanthine oxidase", "setting": "[3]", "result": "does not inhibit"}, {"measurement": "Percent change in serum uric acid, individual patients (P# 1-13)", "setting": "[4]; [6]", "result": "−12.0% and 4.1% and −4.3% and −8.0% and −12.5% and −8.1% and −13.9% and −8.2% and −5.6%"}, {"measurement": "Percent change in serum uric acid, mean (M) of 13 patients", "setting": "[4]; [6]", "result": "−6.9", "unit": "%"}, {"measurement": "Percent change in serum uric acid, individual patients (P# 1-13)", "setting": "[4]; [7]", "result": "−10.7% and −9.6% and −4.3% and −7.3% and −8.9% and −8.1% and −12.0% and −2.6% and −3.5%"}, {"measurement": "Percent change in serum uric acid, mean (M) of 13 patients", "setting": "[4]; [7]", "result": "−6.8", "unit": "%"}, {"measurement": "Percent change in serum uric acid, individual patients (P# 1-13)", "setting": "[4]; [8]", "result": "−21.3% and −19.2% and −8.6% and −14.7% and −17.7% and −16.2% and −24.1% and −5.2% and −7.0%"}, {"measurement": "Percent change in serum uric acid, mean (M) of 13 patients", "setting": "[4]; [8]", "result": "−13.6", "unit": "%"}, {"measurement": "Percent change in serum uric acid, individual patients (P# 1-13)", "setting": "[4]; [9]", "result": "−32.0% and −43.8% and −14.3% and −30.7% and −36.5% and −18.9% and −45.6% and −12.4% and −16.9% and −9.6%"}, {"measurement": "Percent change in serum uric acid, mean (M) of 13 patients", "setting": "[4]; [9]", "result": "−26.6", "unit": "%"}, {"measurement": "Percent change in serum uric acid, individual patients (P# 1-13)", "setting": "[4]; [10]", "result": "−38.7% and −54.8% and −27.1% and −42.7% and −43.8% and −37.8% and −54.4% and −59.8% and −35.2%"}, {"measurement": "Percent change in serum uric acid, mean (M) of 13 patients", "setting": "[4]; [10]", "result": "−41.8", "unit": "%"}, {"measurement": "Percent change in serum uric acid, individual patients (P# 1-13)", "setting": "[4]; [11]", "result": "−48.0% and −52.1% and −40.0% and −36.0% and −45.8% and −33.8% and −50.6% and −25.8% and −39.4%"}, {"measurement": "Percent change in serum uric acid, mean (M) of 13 patients", "setting": "[4]; [11]", "result": "−41.1", "unit": "%"}, {"measurement": "Percent change in serum uric acid, individual patients (P# 1-13)", "setting": "[4]; [12]", "result": "−40.0% and −53.4% and −31.4% and −64.0% and −45.8% and −31.1% and −50.6% and −28.9% and −39.4%"}, {"measurement": "Percent change in serum uric acid, mean (M) of 13 patients", "setting": "[4]; [12]", "result": "−43.1", "unit": "%"}, {"measurement": "Percent change in serum uric acid, individual patients (P# 1-13)", "setting": "[4]; [13]", "result": "−44.0% and −56.2% and −36.4% and −56.0% and −46.9% and −31.1% and −53.2% and −34.5% and −40.8%"}, {"measurement": "Percent change in serum uric acid, mean (M) of 13 patients", "setting": "[4]; [13]", "result": "−45.1", "unit": "%"}, {"measurement": "Percent change in serum uric acid, individual patients (P# 1-13)", "setting": "[4]; [14]", "result": "−48.0% (2×) and −58.9% and −41.4% and −47.9% and −31.1% and −55.7% and −40.2% and −42.3%"}, {"measurement": "Percent change in serum uric acid, mean (M) of 13 patients", "setting": "[4]; [14]", "result": "−47.1", "unit": "%"}, {"measurement": "Percent change in serum uric acid, individual patients (P# 1-13)", "setting": "[4]; [15]", "result": "−36.0% (2×) and −46.6% and −32.9% and −41.7% and −24.3% and −45.6% and −30.9% and −26.8%"}, {"measurement": "Percent change in serum uric acid, mean (M) of 13 patients", "setting": "[4]; [15]", "result": "−35.5", "unit": "%"}, {"measurement": "Percent change in serum uric acid, individual patients (P# 1-13)", "setting": "[4]; [16]", "result": "36.0% and 17.8% and 25.7% and −13.3% and 1.0% and 39.2% and 30.4% and 10.3% and 26.8%"}, {"measurement": "Percent change in serum uric acid, mean (M) of 13 patients", "setting": "[4]; [16]", "result": 18.9, "unit": "%"}, {"measurement": "Effect on serum uric acid levels", "setting": "[4]; 50 mg qd Day 1 and Day 7, tid Days 2 to 6, male and female patients with hyperuricemia and gout", "result": "decreases"}, {"measurement": "Serum uric acid levels once treatment was stopped after 7 days", "setting": "[4]; after 7 days of 50 mg treatment, hyperuricemia and gout", "result": "began to increase again"}, {"measurement": "Percent change in serum creatinine, individual patients (P# 1-13)", "setting": "[5]", "result": "10.1% and 0.9% and 2.9% and 0.0% (2×) and 1.8% and 5.7% and 4.8% and 10.3%"}, {"measurement": "Percent change in serum creatinine, mean (M) of 13 patients", "setting": "[5]", "result": 2.5, "unit": "%"}]}]}
